The values that follow come from article PMC6934184, “Selective DNA-PKcs inhibition extends the therapeutic index of localized radiotherapy and chemotherapy” (The Journal of Clinical Investigation, 2019).

SMILES strings stand for the structures.

The test deals with T1, ERBB4 (HER4) (Homo sapiens, UniProt Q15303).
T1 construct: purchased Thermo Fisher Scientific (Life Technologies) SelectScreen
Put plainly: SelectScreen Z'LYTE. The class given is biochemical. The essentials:
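Percent values come from Thermo SelectScreen profiling of NU5455, combining activity and binding assays. CSF1R was run in Z'LYTE format at Km app ATP, and CAMK1 in Adapta format with ATP listed at 10.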

T1 sequence (Q15303 26-1308): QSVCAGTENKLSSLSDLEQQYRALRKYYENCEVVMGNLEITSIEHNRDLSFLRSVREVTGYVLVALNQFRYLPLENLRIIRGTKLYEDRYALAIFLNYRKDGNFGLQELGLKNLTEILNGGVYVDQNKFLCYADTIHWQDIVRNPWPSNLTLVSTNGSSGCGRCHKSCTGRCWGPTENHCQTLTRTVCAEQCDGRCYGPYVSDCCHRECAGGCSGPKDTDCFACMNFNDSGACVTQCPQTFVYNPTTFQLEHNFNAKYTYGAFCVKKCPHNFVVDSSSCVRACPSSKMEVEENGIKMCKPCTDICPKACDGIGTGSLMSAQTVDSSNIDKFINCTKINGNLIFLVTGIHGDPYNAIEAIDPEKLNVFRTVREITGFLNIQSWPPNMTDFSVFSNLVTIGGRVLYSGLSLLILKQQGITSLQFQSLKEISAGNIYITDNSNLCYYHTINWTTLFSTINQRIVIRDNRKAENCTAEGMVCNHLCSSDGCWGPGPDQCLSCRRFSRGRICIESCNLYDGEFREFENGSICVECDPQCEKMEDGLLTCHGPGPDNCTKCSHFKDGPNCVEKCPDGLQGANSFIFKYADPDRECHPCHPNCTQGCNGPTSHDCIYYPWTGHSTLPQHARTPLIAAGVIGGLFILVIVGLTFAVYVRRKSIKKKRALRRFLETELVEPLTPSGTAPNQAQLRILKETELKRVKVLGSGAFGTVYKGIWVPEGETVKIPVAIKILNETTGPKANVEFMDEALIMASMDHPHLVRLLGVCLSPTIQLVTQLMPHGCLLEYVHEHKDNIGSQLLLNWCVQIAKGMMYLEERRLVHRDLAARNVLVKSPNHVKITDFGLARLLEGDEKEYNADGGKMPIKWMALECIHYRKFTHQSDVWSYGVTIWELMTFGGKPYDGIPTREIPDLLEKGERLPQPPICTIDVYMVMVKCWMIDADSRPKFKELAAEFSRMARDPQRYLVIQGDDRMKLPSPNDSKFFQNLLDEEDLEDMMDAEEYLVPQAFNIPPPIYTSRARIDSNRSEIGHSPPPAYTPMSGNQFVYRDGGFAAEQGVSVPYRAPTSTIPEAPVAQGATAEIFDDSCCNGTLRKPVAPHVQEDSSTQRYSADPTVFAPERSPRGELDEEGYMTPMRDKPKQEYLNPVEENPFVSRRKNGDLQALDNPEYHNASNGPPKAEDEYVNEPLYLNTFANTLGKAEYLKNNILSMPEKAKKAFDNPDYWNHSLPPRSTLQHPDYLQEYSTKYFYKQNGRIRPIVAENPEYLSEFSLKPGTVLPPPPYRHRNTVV

For `CN(C(=O)CN1CCOCC1)c1ccc2sc3c(-c4cccc5c(=O)cc(N6CC7CCC(C6)O7)oc45)cccc3c2c1` [NU5455], the inhibition at 1 µM was -2.8%.

The term inhibition denotes the change of the read-out against control, counted positive when it falls.
